Assay results published in patent publication US5776945A (priority 1995, dated 1998).

Legend:
[1] = test system: Cultured Neurocyte (cerebral cortexes), Glutamic Acid Toxicity; experiment: Cultured-Neurocyte Protective Effect against Glutamic Acid Toxicity (LDH leakage); assay type: cell-based, rat (Wistar, fetal); conditions: Rattus norvegicus, Cerebral cortex neuron, 10 mM glutamic acid, 24 hours at 37° C., read-out: ED50 (50% effective dose), neurocyte protective effect against glutamic acid toxicity
Description: It is known that delayed cerebral-neuronal death is induced if blood flow to the brain is transiently stopped by transient ischemia, anoxia, hypoglycemia, or trauma [T. Kirino, Brain Research, 239, 57 (1982).]. The excitatory toxicity of excitatory neurotransmitters, such as glutamic acid, which is excessively released when associated with ischemia is considered as the cause of the neurocyte damage [S. M. Rotherman and J. W. Olney, Trends in Neuroscience, 10, 299 (1987).]. A compound which protects neurocytes from the cytotoxicity of glutamic acid will be promising as a preventive and therapeutic agent for cerebral ischemic diseases, cerebral neurocyte disorder, and dementia. The following method is employed as an in vitro evaluation system of the protective effect.
Under sterilized conditions, fetuses were taken from female Wistar rats 18 to 19 day-pregnant and the brains thereof were obtained by opening their cranial portions. The brains were placed in an ice-cold L-15 medium to microscopically separate the cerebral cortexes. After being cut into small pieces, the cerebral cortexes of approximately 30 rats were suspended in a mixture of 10 ml of a 0.25% trypsin solution and 0.2 ml of a 0.01% DNase solution to be cultured at 37° C. for 30 min. Then, immediately after addition of 2 ml of serum, the resultant was centrifuged at 1,200 rpm for 2 min. to separate a sediment. To the sediment, 7 ml of a DF medium (prepared by addition of 20 nM of transferrin, 5 μg/ml of insulin, 20 nM of progesterone, 60 nM of selenite, 50 U/ml of penicillin, and 50 U/ml of streptomycin to an equivalent admixture of Dulbecco modified Eagle medium and F-12 medium) was added to prepare a cell suspension which was pipetted 20 times using a 10 ml plastic pipette followed by filtration using a nylon mesh (pore size of 43 μm) to obtain isolated cells. The resulting isolated cells were diluted to 6.0×10^5 cells/ml with the DF medium, inoculated in a polylysine-precoated culture plate having 48 wells at 500 μl per well, and cultured at 37° C. in the presence of 5% CO2 for 1 day. The medium was changed with fresh DF medium on the second day, and 10 μl of a 0.5M glutamic acid solution in distilled water is added to each of the wells (the final concentration of the glutamic acid was 10 mM), and the cells were cultured for further 24 hours at 37° C. in the presence of 5% CO2. Each of the subject compounds was dissolved in distilled water, 10% or 100% DMSO, or 10% methanol and then a 5 μl aliquot was added to each well immediately before addition of glutamic acid. The enzymatic activity of lactate dehydrogenase (LDH) which leaked into the medium from the damaged cells was measured as an index of the neurocyte damage. With respect to each of the subject compounds, LDH leakage at the respective concentrations was measured and a dose-response curve was obtained by a modified Cochran-Armitige method to obtain the 50% effective dose (ED50) of each subject compound.

[2] = test system: Rat Middle Cerebral Artery Occlusion Model; experiment: Infarction Suppression Effect in Rat Middle Cerebral Artery Occlusion (MCAO) Model; assay type: in vivo, rat (Wistar); conditions: i.p. 1 hour before occlusion and 1 hour after reopening, infarction volume 4 days after
Description: Remarkable cerebral edema accompanied with severe cerebrovascular lesions appears in the acute stage of human cerebral infarction. […] Corresponding to development of the lesion from the infarction area to surrounding tissues, the patient's life is seriously affected besides motor and mental functional loss in the conditions of the acute stage of cerebral infarction. A middle cerebral artery occlusion (MCAO; Middle Cerebral Artery Occlusion) model in Wistar rats using emboli with threads is well known as an experimental cerebral ischemia model in which clinical potency of a medicine can be accurately evaluated conforming to clinical conditions of human cerebral infarction [J. Koizumi, Japan Journal of Stroke, 8, 1 (1986)]. This MCAO model was employed as an in vivo evaluation system for evaluating the suppression effect of the compounds of the present invention on infarction development and was conducted according to the following method:
Under 1.0% halothane anesthesia induced by ether, the cervical region of each 10-week old rat was excised at center to expose the furcation of the right carotid while paying attention not to damage the vagus nerve. Centering around the furcation of the right carotid, the common carotid and the external carotid were separated from the surrounding tissues, each of them was ligated with 6-0 floss (Eto K.K.), and another floss was wound around the origin of the internal carotid so as to ligate and fix after inserting the embolus into the carotid. The common carotid was then incised to insert the ebolus toward the internal carotid to approximately 15 to 16 mm, and the proximal terminal of a nylon thread of the embolus was ligated and fixed to the internal carotid with the above mentioned floss. Due to the above procedure, the tip of the embolus exceeded the furcation of the middle cerebral artery, entered into the anterior cerebral artery to approximately 1 to 2 mm, and the entrance of the middle cerebral artery was occluded by the embolus body (made of a resin) for 2 hours. To reopen, the embolus with a thread was pulled away so as to restart the blood flow to the middle cerebral artery. Each of the subject compounds was intraperitoneally administered 1 hour before occlusion and 1 hour after reopening. Four days after the occlusion-reopening, each rat was systematically perfused with a saline from the heart and the brain was removed. After cooling each of the obtained brains with iced-water for 5 min., 7 coronary slices, taken at 2.0 mm intervals, of the cerebrum were prepared. Each slice was stained with TTC (triphenyltetrazolium chloride) and fixed with a neutral 5% formalin buffer solution, then the infarction area of the right cerebral hemisphere was measured by an image analyzer (Olympus) so as to evaluate the infraction expressed as a volume (mm3). The resulting infraction volume was compared with that of a control group to calculate the infarction suppression ratio.

[3] = test system: Acetic Acid-Induced Writhing; experiment: Analgesic Activity Test by Acetic Acid-Induced Writhing Method; assay type: in vivo, mouse (ddY); conditions: Mus musculus, sc; subcutaneous, 15 min. before acetic acid; writhings over 10 min.
Procedure: For this experiment, 5-week old ddY mice were employed. A 0.6% aqueous acetic acid solution was intraperitoneally administered to each of the mice at 0.1 ml/10 g body weight to evaluate the analgesic activity by employing the number of writhing reactions occurring over a 10 min.-period starting from 10 min. after administration as an index. Each of the subject compounds was subcutaneously administered to the back of each mouse 15 min. before the acetic acid administration.

Capsaicin Induced Cough = experiment: animal or person; assay type: in vivo; conditions: Rattus norvegicus, ip; read-out: ED50, antitussive effect (dose exhibiting 50% cough suppression ratio)

**Q.** `O=C(N[C@@H]1CC[C@H]2CN(CC3CC3)CC[C@]2(c2cccc(O)c2)C1)c1ccc2ccccc2c1` (relative stereo) [Compound 23, Trans-2-cyclopropylmethyl-4a-(3-hydroxyphenyl)-6β-(2-naphthoamido)decahydroisoquinoline] was tested. Which EC50 [1] did it give?
**A.** The EC50 was 92 nM.

**Q.** What about the Infarction suppression ratio ([2]; Dose 0.3 mg/kg) of the same molecule?
**A.** Its Infarction suppression ratio is 23%.

**Q.** What does the source list for `CC(C)CN(C(=O)Cc1ccc(Cl)c(Cl)c1)[C@H]1CC[C@@]2(O)CN(CC3CC3)CC[C@]2(c2cccc(O)c2)C1` (relative stereo) [Compound 14, Trans-2-cyclopropylmethyl-8a-hydroxy-4a-(3-hydroxyphenyl)-6α-[N-isobutyl-(3,4-dichlorophenylacetamido)]decahydroisoquinoline]?
**A.** EC50 [1]: 1100 nM; ED50 [3]: 5.78 mg/kg

**Q.** Which EC50 [1] does the source give for `CN(C(=O)CCCCCc1ccccc1)[C@H]1CC[C@H]2CN(CC3CC3)CC[C@]2(c2cccc(O)c2)C1` [Compound 10, (4aS, 8aR)-trans-2-cyclopropylmethyl-4a-(3-hydroxyphenyl)-6α-[N-methyl-(6-phenylhexanoamido)]decahydroisoquinoline] here?
**A.** The EC50 was 43 nM.

**Q.** And the Infarction suppression ratio ([2]; Dose 0.03 mg/kg)?
**A.** Its Infarction suppression ratio is 19%.

**Q.** What about the Infarction suppression ratio ([2]; Dose 0.3 mg/kg) of the same molecule?
**A.** Its Infarction suppression ratio is 21%.

**Q.** And the Infarction suppression ratio ([2]; Dose 3 mg/kg)?
**A.** The Infarction suppression ratio was 7%.

**Q.** What about the ED50 [3] of the same molecule?
**A.** Its ED50 is 5 mg/kg.

**Q.** Which EC50 [1] does the source give for `CC(C)CN(C(=O)CCCCCc1ccccc1)[C@H]1CC[C@H]2CN(CC3CC3)CC[C@]2(c2cccc(O)c2)C1` [Compound 11, (4aS, 8aR)-trans-2-cyclopropylmethyl-4a-(3-hydroxyphenyl)-6α-[N-isobutyl-(6-phenylhexanoamido)]decahydroisoquinoline] here?
**A.** The EC50 was 60900 nM.

**Q.** And the Infarction suppression ratio ([2]; Dose 0.03 mg/kg)?
**A.** The Infarction suppression ratio was 5%.

**Q.** And the Infarction suppression ratio ([2]; Dose 3 mg/kg)?
**A.** The Infarction suppression ratio was 33%.

**Q.** How did the ED50 [3] turn out when `CN(C(=O)/C=C/c1ccoc1)[C@H]1CC[C@H]2CN(CC3CC3)CC[C@]2(c2cccc(O)c2)C1` (relative stereo) [Compound 25] was run?
**A.** The ED50 was 0.83 mg/kg.

**Q.** `O=C(Cc1ccc(Cl)c(Cl)c1)N[C@@H]1CC[C@H]2CN(CC3CC3)CC[C@]2(c2cccc(O)c2)C1` (relative stereo) [Compound 21, Trans-2-cyclopropylmethyl-4a-(3-hydroxyphenyl)-6β-(3,4-dichlorophenylacetamido)decahydroisoquinoline] was tested. Which EC50 [1] did it give?
**A.** The EC50 was 12600 nM.

**Q.** For `O=C(N[C@@H]1CC[C@H]2CN(CCc3ccccc3)CC[C@]2(c2cccc(O)c2)C1)c1ccc2ccccc2c1` (relative stereo) [Compound 24, Trans-2-(2-phenetyl)-4a-(3-hydroxyphenyl)-6β-(2-naphthoamido)decahydroisoquinoline], which ED50 [3] is on record?
**A.** Its ED50 is 1.7 mg/kg.

**Q.** `CN(C(=O)/C=C/c1cccc(C(F)(F)F)c1)[C@H]1CC[C@@]2(O)CN(CC3CC3)CC[C@]2(c2cccc(O)c2)C1` (relative stereo) [Compound 12, Trans-2-cyclopropylmethyl-8a-hydroxy-4a-(3-hydroxyphenyl)-6α-[N-methyl-(3-trifluoromethylcinnamamido)]decahydroisoquinoline] was tested. Which EC50 [1] did it give?
**A.** The EC50 was 480 nM.

**Q.** And the Infarction suppression ratio ([2]; Dose 0.3 mg/kg)?
**A.** The Infarction suppression ratio was 64%.

**Q.** What about the Infarction suppression ratio ([2]; Dose 3 mg/kg) of the same molecule?
**A.** The Infarction suppression ratio was 48%.

**Q.** What about the ED50 [3] of the same molecule?
**A.** The ED50 was 1.49 mg/kg.

**Q.** And the ED50 (Capsaicin Induced Cough)?
**A.** The ED50 was 0.00607 mg/kg.

**Q.** For `CN(C(=O)/C=C/c1cccc(C(F)(F)F)c1)[C@@H]1CC[C@@H]2CN(CC3CC3)CC[C@@]2(c2cccc(O)c2)C1` [Compound 9, (4aR, 8aS)-trans-2-cyclopropylmethyl-4a-(3-hydroxyphenyl)-6α-[N-methyl-(3-trifluoromethylcinnamamido)]decahydroisoquinoline], which EC50 [1] is on record?
**A.** The EC50 was 520 nM.

**Q.** What about the Infarction suppression ratio ([2]; Dose 0.3 mg/kg) of the same molecule?
**A.** Its Infarction suppression ratio is 28%.

**Q.** And the Infarction suppression ratio ([2]; Dose 3 mg/kg)?
**A.** Its Infarction suppression ratio is 7%.

**Q.** And the ED50 [3]?
**A.** Its ED50 is 3.11 mg/kg.

**Q.** Which Infarction suppression ratio ([2]; Dose 0.03 mg/kg) does the source give for `CN(C(=O)/C=C/c1cccc(C(F)(F)F)c1)[C@H]1CC[C@H]2CN(CC3CC3)CC[C@]2(c2cccc(O)c2)C1` [Compound 8, (4aS, 8aR)-trans-2-cyclopropylmethyl-4a-(3-hydroxyphenyl)-6α-[N-methyl-(3-trifluoromethylcinnamamido)]decahydroisoquinoline] here?
**A.** The Infarction suppression ratio was 26%.

**Q.** And the Infarction suppression ratio ([2]; Dose 0.3 mg/kg)?
**A.** Its Infarction suppression ratio is 43%.

**Q.** And the Infarction suppression ratio ([2]; Dose 3 mg/kg)?
**A.** Its Infarction suppression ratio is 32%.

**Q.** What about the ED50 (Capsaicin Induced Cough) of the same molecule?
**A.** Its ED50 is 0.00539 mg/kg.

**Q.** What does the source list for `CN(C(=O)/C=C/c1cccc(C(F)(F)F)c1)[C@H]1CC[C@H]2CN(CC3CC3)CC[C@]2(c2cccc(O)c2)C1` (relative stereo) [Compound 1, Trans-2-cyclopropylmethyl-4a-(3-hydroxyphenyl)-6α-[N-methyl-(3-trifluoromethylcinnamamido)]decahydroisoquinoline]?
**A.** Infarction suppression ratio ([2]; Dose 0.03 mg/kg): 32%; Infarction suppression ratio ([2]; Dose 0.3 mg/kg): 13%; Infarction suppression ratio ([2]; Dose 3 mg/kg): 23%

**Q.** `CC(C)CN(C(=O)CCCCCc1ccccc1)[C@H]1CC[C@@]2(O)CN(CC3CC3)CC[C@]2(c2cccc(O)c2)C1` (relative stereo) [Compound 13, Trans-2-cyclopropylmethyl-8a-hydroxy-4a-(3-hydroxyphenyl)-6α-[N-isobutyl-(6-phenylhexanoamido)]decahydroisoquinoline] was tested. Which EC50 [1] did it give?
**A.** The EC50 was 3000 nM.
